Data on three compounds can be found in US20050143336A1 (priority 2003, published 2005).

Structures are written as SMILES.

In one assay the test system is p44/42 MAPK. Particulars: MRC-9 cells, 10, 30 μM prior to FUS1-nanoparticles. Here is the method:
In vitro experiments. To determine the effect of FUS1-nanoparticles on the activation of signaling molecules associated with inflammation, MRC-9 fibroblast cells were seeded in six-well plates (5×10^5 cells/well) and incubated overnight at 37° C. and 5% CO2. […] Two-three hours after treatment, cells were transfected with FUS1-nanoparticles (2.5 μg DNA) in 0.2% serum medium. Cells were harvested at different time-points (2 h, 4 h, 15 h) after transfection, washed, and cell lysates prepared as previously described (Ramesh et al., 2001a). Untransfected cells treated with PBS served as control in these experiments. Cell lysates were subjected to western blotting analysis and probed with various antibodies as previously described (Ramesh et al., 2001b; Ito et al., 2003). In all the experiments, β-actin was detected using anti-β-actin antibody (Sigma Chemicals, St. Louis, Mo.) as a measure of internal loading control.

The test system of the next assay is C3H mice. The assay can be described thus: Survival of mice given p38MAPK or pJNK inhibitor before FUS1-nanoparticles. The format is in vivo. Here is the method: The amount of FUS1 plasmid DNA delivered was 100 μg. Animals were injected intravenously with FUS1-nanoparticles and animal survival monitored for 25 days.
The mark [1] stands for this setting: inhibitor 15 mg/kg intraperitoneally 24 h and 3 h prior to FUS1-nanoparticles (100 μg DNA) i.v., monitored 25 days.

For `N#CC(=C(/N)Sc1ccccc1N)/C(C#N)=C(\N)Sc1ccccc1N` [U0126], the “p44/42 MAPK expression and downstream substrates” value with p44/42 MAPK is listed as “significant inhibition”.

Consider `C[S+]([O-])c1ccc(-c2nc(-c3ccncc3)c(-c3ccc(F)cc3)[nH]2)cc1` (stereo not shown) [SB 203580], for which the survival with C3H mice (setting [1]) is reported as 100%; in the assay with C3H mice (two i.p. doses at 24 h and 3 h before complex), “Prolonged survival”.

In the case of `O=C1c2ccccc2-c2n[nH]c3cccc1c23` [pJNK inhibitor], the survival with C3H mice (setting [1]) was 33%.
